Source: patent US20080269241A1, “BICYCLIC AMINOPROPYL TETRAHYDRO-PYRAZOLO-PYRIDINE MODULATORS OF CATHEPSIN S” (priority 2007, published 2008)

biological target: T1, human cathepsin S (CatS) (Homo sapiens, UniProt P25774); assay: Recombinant human cathepsin S (CatS) fluorogenic substrate inhibition assay; type: biochemical; settings: not given
T1 construct: made in house; host or cells: baculovirus system (insect cells)
Protocol: Recombinant human cathepsin S (CatS) was expressed in the baculovirus system and purified in one step with a thiopropyl-sepharose column. […] The assay is run in 150 mM sodium acetate pH 5.0 containing 1.5 mM DTT and 150 mM NaCl. […] Measurements are taken every min for 20 min. The rate is calculated from the slope of the increase in fluorescence and the percent inhibition is calculated from this.

T1 sequence (P25774 115-331): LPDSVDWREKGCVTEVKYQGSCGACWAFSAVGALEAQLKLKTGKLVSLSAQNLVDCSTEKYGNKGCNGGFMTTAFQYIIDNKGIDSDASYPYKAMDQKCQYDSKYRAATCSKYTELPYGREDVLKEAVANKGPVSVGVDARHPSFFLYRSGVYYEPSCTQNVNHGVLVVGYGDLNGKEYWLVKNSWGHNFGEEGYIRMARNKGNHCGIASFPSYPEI

SMILES	IC50 [nM]
COc1ccccc1C1CCN(CC(O)Cn2nc(-c3ccc(C(F)(F)F)c(CNC(=O)CC(C)C)c3)c3c2CCN(S(C)(=O)=O)C3)CC1 (stereo not drawn) [Example 259, N-[5-(1-{2-Hydroxy-3-[4-(2-methoxy-phenyl)-piperidin-1-yl]-propyl}-5-methanesulfonyl-4,5,6,7-tetrahydro-1H-pyrazolo[4,3-c]pyridin-3-yl)-2-trifluoromethyl-benzyl]-3-methyl-butyramide]	20

same assay, conditions: recombinant human CatS, 10 μM Z-Valine-Valine-Arginine-AMC, pH 5.0; average of results obtained; read-out: CatS IC50

SMILES	IC50 [nM]
CC(C)CC(=O)NCc1cc(-c2nn(CC(O)CN3CCC(N4CCOCC4)CC3)c3c2CN(S(C)(=O)=O)CC3)ccc1C(F)(F)F (stereo not drawn) [Example 254, N-(5-{1-[2-Hydroxy-3-(4-morpholin-4-yl-piperidin-1-yl)-propyl]-5-methanesulfonyl-4,5,6,7-tetrahydro-1H-pyrazolo[4,3-c]pyridin-3-yl}-2-trifluoromethyl-benzyl)-3-methyl-butyramide]	120
CC(C)CC(=O)NCc1cc(-c2nn(CC(O)CN3CCC(c4nnnn4Cc4ccccc4)CC3)c3c2CN(S(C)(=O)=O)CC3)ccc1C(F)(F)F (stereo not drawn) [Example 256, N-[5-(1-{3-[4-(1-Benzyl-1H-tetrazol-5-yl)-piperidin-1-yl]-2-hydroxy-propyl}-5-methanesulfonyl-4,5,6,7-tetrahydro-1H-pyrazolo[4,3-c]pyridin-3-yl)-2-trifluoromethyl-benzyl]-3-methyl-butyramide]	70
CC(C)CC(=O)NCc1cc(-c2nn(CC(O)CN3CCC(c4ccccn4)CC3)c3c2CN(S(C)(=O)=O)CC3)ccc1C(F)(F)F (stereo not drawn) [Example 257, N-(5-{1-[2-Hydroxy-3-(3′,4′,5′,6′-tetrahydro-2′H-[2,4′]bipyridinyl-1′-yl)-propyl]-5-methanesulfonyl-4,5,6,7-tetrahydro-1H-pyrazolo[4,3-c]pyridin-3-yl}-2-trifluoromethyl-benzyl)-3-methyl-butyramide]	10
CC(C)CC(=O)NCc1cc(-c2nn(CC(O)CN3CCC(O)(c4ccccn4)CC3)c3c2CN(S(C)(=O)=O)CC3)ccc1C(F)(F)F (stereo not drawn) [Example 258, N-(5-{1-[2-Hydroxy-3-(4′-hydroxy-3′,4′,5′,6′-tetrahydro-2′H-[2,4′]bipyridinyl-1′-yl)-propyl]-5-methanesulfonyl-4,5,6,7-tetrahydro-1H-pyrazolo[4,3-c]pyridin-3-yl}-2-trifluoromethyl-benzyl)-3-methyl-butyramide]	40
CC(C)CC(=O)NCc1cc(-c2nn(CC(O)CN3CCC(C(=O)N4CCOCC4)CC3)c3c2CN(S(C)(=O)=O)CC3)ccc1C(F)(F)F (stereo not drawn) [Example 260, N-[5-(1-{2-Hydroxy-3-[4-(morpholine-4-carbonyl)-piperidin-1-yl]-propyl}-5-methanesulfonyl-4,5,6,7-tetrahydro-1H-pyrazolo[4,3-c]pyridin-3-yl)-2-trifluoromethyl-benzyl]-3-methyl-butyramide]	120
CC(C)=CC(=O)NCc1cc(-c2nn(CC(O)CN3CCN(c4ncccc4Cl)CC3)c3c2CN(S(C)(=O)=O)CC3)ccc1C(F)(F)F (stereo not drawn) [Example 262, 3-Methyl-but-2-enoic acid 5-(1-{3-[4-(3-chloro-pyridin-2-yl)-piperazin-1-yl]-2-hydroxy-propyl}-5-methanesulfonyl-4,5,6,7-tetrahydro-1H-pyrazolo[4,3-c]pyridin-3-yl)-2-trifluoromethyl-benzylamide]	10
CC(C)=CC(=O)NCc1cc(-c2nn(CC(O)CN3CCC(c4ccccn4)CC3)c3c2CN(S(C)(=O)=O)CC3)ccc1C(F)(F)F (stereo not drawn) [Example 263, 3-Methyl-but-2-enoic acid 5-{1-[2-hydroxy-3-(3′,4′,5′,6′-tetrahydro-2′H-[2,4′]bipyridinyl-1′-yl)-propyl]-5-methanesulfonyl-4,5,6,7-tetrahydro-1H-pyrazolo[4,3-c]pyridin-3-yl}-2-trifluoromethyl-benzylamide]	10
COc1ccccc1C1CCN(CC(O)Cn2nc(-c3ccc(C(F)(F)F)c(CNC(=O)C=C(C)C)c3)c3c2CCN(S(C)(=O)=O)C3)CC1 (stereo not drawn) [Example 264, 3-Methyl-but-2-enoic acid 5-(1-{2-hydroxy-3-[4-(2-methoxy-phenyl)-piperidin-1-yl]-propyl}-5-methanesulfonyl-4,5,6,7-tetrahydro-1H-pyrazolo[4,3-c]pyridin-3-yl)-2-trifluoromethyl-benzylamide]	10
CC(C)=CC(=O)NCc1cc(-c2nn(CC(O)CN3CCN(c4c(Cl)cncc4Cl)CC3)c3c2CN(S(C)(=O)=O)CC3)ccc1C(F)(F)F (stereo not drawn) [Example 265, 3-Methyl-but-2-enoic acid 5-(1-{3-[4-(3,5-dichloro-pyridin-4-yl)-piperazin-1-yl]-2-hydroxy-propyl}-5-methanesulfonyl-4,5,6,7-tetrahydro-1H-pyrazolo[4,3-c]pyridin-3-yl)-2-trifluoromethyl-benzylamide]	10
CC(C)=CC(=O)NCc1cc(-c2nn(CC(O)CN3CCC(O)(c4ccccn4)CC3)c3c2CN(S(C)(=O)=O)CC3)ccc1C(F)(F)F (stereo not drawn) [Example 266, 3-Methyl-but-2-enoic acid 5-{1-[2-hydroxy-3-(4′-hydroxy-3′,4′,5′,6′-tetrahydro-2′H-[2,4′]bipyridinyl-1′-yl)-propyl]-5-methanesulfonyl-4,5,6,7-tetrahydro-1H-pyrazolo[4,3-c]pyridin-3-yl}-2-trifluoromethyl-benzylamide]	10
CC(C)=CC(=O)NCc1cc(-c2nn(CC(O)CN3CCC(n4cn[nH]c4=O)CC3)c3c2CN(S(C)(=O)=O)CC3)ccc1C(F)(F)F (stereo not drawn) [Example 268, 3-Methyl-but-2-enoic acid 5-(1-{2-hydroxy-3-[4-(5-oxo-1,5-dihydro-[1,2,4]triazol-4-yl)-piperidin-1-yl]-propyl}-5-methanesulfonyl-4,5,6,7-tetrahydro-1H-pyrazolo[4,3-c]pyridin-3-yl)-2-trifluoromethyl-benzylamide]	10
CC(C)=CC(=O)NCc1cc(-c2nn(CC(O)CN3CCC(c4nc(=O)[nH][nH]4)CC3)c3c2CN(S(C)(=O)=O)CC3)ccc1C(F)(F)F (stereo not drawn) [Example 270, 3-Methyl-but-2-enoic acid 5-(1-{2-hydroxy-3-[4-(5-oxo-2,5-dihydro-1H-[1,2,4]triazol-3-yl)-piperidin-1-yl]-propyl}-5-methanesulfonyl-4,5,6,7-tetrahydro-1H-pyrazolo[4,3-c]pyridin-3-yl)-2-trifluoromethyl-benzylamide]	10
CC(C)=CC(=O)NCc1cc(-c2nn(CC(O)CN3CCC(c4c[nH]c5ncccc45)CC3)c3c2CN(S(C)(=O)=O)CC3)ccc1C(F)(F)F (stereo not drawn) [Example 272, 3-Methyl-but-2-enoic acid 5-(1-{2-hydroxy-3-[4-(1H-pyrrolo[2,3-b]pyridin-3-yl)-piperidin-1-yl]-propyl}-5-methanesulfonyl-4,5,6,7-tetrahydro-1H-pyrazolo[4,3-c]pyridin-3-yl)-2-trifluoromethyl-benzylamide]	20
CC(C)=CC(=O)NCc1cc(-c2nn(CC(O)CN3CCC(c4ccccc4)CC3)c3c2CN(S(C)(=O)=O)CC3)ccc1C(F)(F)F (stereo not drawn) [Example 274, 3-Methyl-but-2-enoic acid 5-{1-[2-hydroxy-3-(4-phenyl-piperidin-1-yl)-propyl]-5-methanesulfonyl-4,5,6,7-tetrahydro-1H-pyrazolo[4,3-c]pyridin-3-yl}-2-trifluoromethyl-benzylamide]	10
